34 molecules from ChEMBL document CHEMBL4483862, “Open-source discovery of chemical leads for next-generation chemoprotective antimalarials” (2018) can be followed below.

The test system of this assay is Plasmodium berghei. Put plainly: Luciferase/luciferin-expressing antifolate-resistant parasites were used to infect a culture of HepG2 cells that were pre-incubated with compounds. Infected hepatocytes emit light due to the luciferase reaction. Assay results are presented as the percent inhibition of light emission compared to control. […]. The class given is functional. To be noted: sporozoite; for IC90: read-out: LUCIFERASE INFECTION ASSAY - IC90.

The mark [1] stands for this setting: read-out: LUCIFERASE INFECTION ASSAY - IC50.

A value given as a limit tells only on which side of the number the result lay.

As for `Clc1cnc(N/N=C/c2sc(N3CCCCC3)nc2-c2cccs2)c(Cl)c1`, the IC90 – broadly, the point of the concentration-response curve where the effect stands at 90% – amounted to 9.96 µM. Where the note is “HEPG2TOX_HILL_SLOPE 1.78, HEPG2TOX_R_SQUARED 0.499, PBLUC_HILL_SLOPE 5.62, PBLUC_R_SQUARED 0.563, read-out: LUCIFERASE INFECTION ASSAY - IC50”, the IC50 (commonly the point on the concentration scale where inhibition reaches its midpoint) was 6.74 µM.

For the molecule `Cc1nc2ccccc2n1CCNC(=O)c1ccc(Cl)cc1NC(=O)c1cccs1`, the IC90 was 4.77 µM. Moreover, the concentration for half-maximal inhibition (IC50) (PBLUC_HILL_SLOPE 48.3, PBLUC_R_SQUARED 0.528, read-out: LUCIFERASE INFECTION ASSAY - IC50) worked out at 4.56 µM.

On to `COc1ccc(-c2cnc3c(Nc4cccc(OC(F)(F)C(F)F)c4)nccn23)cc1`, for which the concentration for an effect of 90% (IC90) is 2.67 µM. Moreover, for the setting “HEPG2TOX_HILL_SLOPE 1.95, HEPG2TOX_R_SQUARED 0.977, PBLUC_HILL_SLOPE 27.6, PBLUC_R_SQUARED 0.693, read-out: LUCIFERASE INFECTION ASSAY - IC50”, the IC50 turned out to be 2.47 µM.

For the molecule `O=C(Nc1cc(C(F)(F)F)cc(C(F)(F)F)c1)c1csc([N+](=O)[O-])c1`, the IC90 worked out at 7.1 µM. Moreover, the IC50 (HEPG2TOX_HILL_SLOPE 11, HEPG2TOX_R_SQUARED 0.957, PBLUC_HILL_SLOPE 1.57, PBLUC_R_SQUARED 0.511, read-out: LUCIFERASE INFECTION ASSAY - IC50) stood at 1.75 µM.

Turning to `Cc1[nH]c2ccccc2c1C(=O)C(C)OC(=O)c1c2c(nc3ccccc13)/C(=C/c1cccc([N+](=O)[O-])c1)CCC2` (stereo not drawn), the IC90 is above 10 µM. The IC50 (FFLUC_HILL_SLOPE 1.81, FFLUC_R_SQUARED 0.362, PBLUC_HILL_SLOPE 3.43, PBLUC_R_SQUARED 0.216, read-out: LUCIFERASE INFECTION ASSAY - IC50) stood at 6.23 µM.

As for `O=c1c2ccccc2cnn1-c1nc2ccccc2s1`, the IC90 was found to be 1.01 µM. Under setting [1], the IC50 came out at 0.212 µM.

Take `CCOC(=O)c1c(NC(=O)CN(CC(C)C)C2CC2)sc(C(=O)Nc2ccc(C)cc2C)c1C`: the IC90 was 5.26 µM. Moreover, the IC50 under setting [1] is 4.24 µM.

For `Cc1cc(C)n(-c2nc(-c3ccccc3)cc(N3CCOCC3)n2)n1`, the concentration for an effect of 90% (IC90) turned out to be 6.26 µM. In addition, for the setting “PBLUC_HILL_SLOPE 5.14, PBLUC_R_SQUARED 0.351, read-out: LUCIFERASE INFECTION ASSAY - IC50”, the IC50 was found to be 4.08 µM.

Regarding `CCc1cccc2c(C(=O)CN3CCC(C(=O)N4CCCCCC4)CC3)c[nH]c12`, the IC90 was above 10 µM. In addition, the half-maximal inhibitory concentration (IC50) (PBLUC_HILL_SLOPE 1.3, PBLUC_R_SQUARED 0.149, read-out: LUCIFERASE INFECTION ASSAY - IC50) is above 10 µM.

For the molecule `NC(c1ccccc1)c1csc(Nc2ccc(-c3ccccc3)nn2)n1` (stereo not drawn), the IC90 is 3.73 µM. Also, the IC50 (PBLUC_HILL_SLOPE 11.1, PBLUC_R_SQUARED 0.371, read-out: LUCIFERASE INFECTION ASSAY - IC50) was 3.06 µM.

For `Cc1nnc(SC2CCCCC2=O)n1C1CCCCC1` (stereo not drawn), the IC90 is above 10 µM. Besides, the IC50 under setting [1] was above 10 µM.

On to `CCOC(=O)C1SC(C(C#N)c2ccccn2)=NC1(c1ccc(C)cc1)C(F)(F)F` (stereo not drawn), for which the IC90 was above 10 µM. Besides, the half-maximal inhibitory concentration (IC50) under setting [1] is above 10 µM.

`COCCOc1ccc(C(F)(F)F)cc1NC(=O)COC(=O)c1ccc2[nH]c3c(c2c1)CCCC3`: the IC90 is above 10 µM. Also, the IC50 (FFLUC_HILL_SLOPE 10.4, FFLUC_R_SQUARED 0.848, HEPG2TOX_HILL_SLOPE 1.66, HEPG2TOX_R_SQUARED 0.868, PBLUC_HILL_SLOPE 2.48, PBLUC_R_SQUARED 0.755, read-out: LUCIFERASE INFECTION ASSAY - IC50) worked out at 4.17 µM.

For the molecule `Cc1sc2nc(-c3cccnc3)nc(N3CCN(C(=O)C4COc5ccccc5O4)CC3)c2c1C` (stereo not drawn), the IC90 was above 10 µM. Moreover, where the note is “PBLUC_HILL_SLOPE 15.9, PBLUC_R_SQUARED 0.0253, read-out: LUCIFERASE INFECTION ASSAY - IC50”, the half-maximal inhibitory concentration (IC50) was 9.35 µM.

Take `OC(CN1CCCCC1)Cn1c2ccc(Br)cc2c2cc(Br)cc(Br)c21` (stereo not drawn): the IC90 is above 6.05 µM. In addition, the IC50 under setting [1] was above 6.05 µM.

Take `CCOC(=O)c1sc(N)c(C#N)c1CSc1nnc(Cc2cccc3ccccc23)n1C1CCCCC1`: the concentration for an effect of 90% (IC90) is 9.87 µM. Further, the IC50 (PBLUC_HILL_SLOPE 16.7, PBLUC_R_SQUARED 0.489, read-out: LUCIFERASE INFECTION ASSAY - IC50) is 8.65 µM.

`COc1ccc(S(=O)(=O)N(Cc2ccc(C(=O)NC3CC3)cc2)C2CC2)cc1OC`: the IC90 was found to be 7.7 µM. For the same molecule, the IC50 (PBLUC_HILL_SLOPE 1.44, PBLUC_R_SQUARED 0.778, read-out: LUCIFERASE INFECTION ASSAY - IC50) amounted to 1.68 µM.

Regarding `Cn1c(=O)[nH]c(=O)c2ccc(C(=O)/N=c3/sccn3Cc3ccc(Cl)cc3Cl)nc21`, the concentration for an effect of 90% (IC90) was found to be 5.16 µM. For the same molecule, for the setting “HEPG2TOX_HILL_SLOPE 1.78, HEPG2TOX_R_SQUARED 0.947, PBLUC_HILL_SLOPE 2.11, PBLUC_R_SQUARED 0.878, read-out: LUCIFERASE INFECTION ASSAY - IC50”, the IC50 worked out at 1.82 µM.

As for `CCOC(=O)c1sc(S(C)(=O)=O)c2c1CC(C)(C)CC2=O`, the IC90 was above 9.99 µM. Moreover, where the note is “HEPG2TOX_HILL_SLOPE 8.99, HEPG2TOX_R_SQUARED 0.709, PBLUC_HILL_SLOPE 5.08, PBLUC_R_SQUARED 0.0136, read-out: LUCIFERASE INFECTION ASSAY - IC50”, the IC50 was above 9.99 µM.

Consider `CS(=O)(=O)c1ncc(Cl)c(C(=O)C(C#N)c2ccc3ccccc3n2)n1` (stereo not drawn), for which the IC90 is 4.88 µM. For the same molecule, the IC50 (HEPG2TOX_HILL_SLOPE 3.45, HEPG2TOX_R_SQUARED 0.508, PBLUC_HILL_SLOPE 8.67, PBLUC_R_SQUARED 0.634, read-out: LUCIFERASE INFECTION ASSAY - IC50) is 3.78 µM.

With `OCc1cccc(-c2ccc3ncc(-c4cccs4)n3n2)c1`, the concentration for an effect of 90% (IC90) amounted to 4.05 µM. In addition, the IC50 (HEPG2TOX_HILL_SLOPE 1.03, HEPG2TOX_R_SQUARED 0.934, PBLUC_HILL_SLOPE 12.1, PBLUC_R_SQUARED 0.638, read-out: LUCIFERASE INFECTION ASSAY - IC50) was 3.38 µM.

In the case of `C/C(=N\NC(=O)c1ccc(OCC(=O)N2C(C)CCCC2C)cc1)c1ccc2ccccc2c1O` (stereo not drawn), the IC90 was determined as 3.9 µM. Further, under “HEPG2TOX_HILL_SLOPE 2.27, HEPG2TOX_R_SQUARED 0.93, PBLUC_HILL_SLOPE 2.78, PBLUC_R_SQUARED 0.436, read-out: LUCIFERASE INFECTION ASSAY - IC50”, the 50% inhibitory concentration (IC50) came out at 1.77 µM.

On to `Cc1cc(C)n(-c2nc(NCc3ccco3)cc(-c3ccccc3)n2)n1`, for which the concentration for an effect of 90% (IC90) was above 9.55 µM. Besides, where the note is “PBLUC_HILL_SLOPE 3.01, PBLUC_R_SQUARED 0.273, read-out: LUCIFERASE INFECTION ASSAY - IC50”, the IC50 was 5.14 µM.

As for `CC(Sc1nc(-c2ccccc2)c(-c2ccccc2)o1)C(=O)N1CCNC1=O` (stereo not drawn), the IC90 is above 10 µM. In addition, the IC50 under setting [1] is above 10 µM.

For the molecule `Cc1nc2c3ccccc3nc(SCC(=O)Nc3ccccc3)n2n1`, the IC90 was 1.43 µM. Besides, the IC50 (HEPG2TOX_HILL_SLOPE 1.21, HEPG2TOX_R_SQUARED 0.956, PBLUC_HILL_SLOPE 1.03, PBLUC_R_SQUARED 0.933, read-out: LUCIFERASE INFECTION ASSAY - IC50) stood at 0.169 µM.

For `Cc1ccc(C(=O)Nc2nc3ccccc3[nH]2)cc1NC(=O)c1ccco1`, the IC90 was above 10 µM. For the same molecule, where the note is “PBLUC_HILL_SLOPE 2.56, PBLUC_R_SQUARED 0.483, read-out: LUCIFERASE INFECTION ASSAY - IC50”, the IC50 is 4.68 µM.

Take `O=C(Nc1nc2ccccn2c1C(=O)NC1CCCC1)c1ccc(F)c(F)c1`: the IC90 came out at 3.18 µM. Besides, the IC50 (FFLUC_HILL_SLOPE 26.5, FFLUC_R_SQUARED 0.0302, HEPG2TOX_HILL_SLOPE 1.05, HEPG2TOX_R_SQUARED 0.954, PBLUC_HILL_SLOPE 2.57, PBLUC_R_SQUARED 0.624, read-out: LUCIFERASE INFECTION ASSAY - IC50) was 1.35 µM.

In the case of `Cc1ccccc1CN1CCN(c2cc(=O)n3ccccc3n2)CC1`, the IC90 was above 10 µM. In addition, the IC50 under setting [1] worked out at 6.42 µM.

Take `O=C(Nc1ccccc1)Nc1ccc(Sc2cccs2)cc1`: the IC90 is 8.94 µM. Besides, the IC50 (HEPG2TOX_HILL_SLOPE 12.6, HEPG2TOX_R_SQUARED 0.73, PBLUC_HILL_SLOPE 4.46, PBLUC_R_SQUARED 0.693, read-out: LUCIFERASE INFECTION ASSAY - IC50) came out at 5.46 µM.

Regarding `CCC(C)NC(=O)c1c(NC(=O)c2ccccc2)nc2ccc(C)cn12` (stereo not drawn), the IC90 was above 9.42 µM. Moreover, where the note is “PBLUC_HILL_SLOPE 13.5, PBLUC_R_SQUARED 0.225, read-out: LUCIFERASE INFECTION ASSAY - IC50”, the IC50 was determined as 8.13 µM.

In the case of `Cc1ccc(/C=C/C(=O)NC2=NCCS2)c(Br)c1`, the IC90 is above 10 µM. Further, the IC50 (PBLUC_HILL_SLOPE 0.976, PBLUC_R_SQUARED 0.447, read-out: LUCIFERASE INFECTION ASSAY - IC50) was found to be 3.48 µM.

Consider `CCc1ccc(-n2nnnc2-c2cnc(N)nc2-c2ccccc2)cc1`, for which the 90% effect concentration (IC90) came to 1.61 µM. Moreover, the IC50 (HEPG2TOX_HILL_SLOPE 0.931, HEPG2TOX_R_SQUARED 0.943, PBLUC_HILL_SLOPE 1.76, PBLUC_R_SQUARED 0.648, read-out: LUCIFERASE INFECTION ASSAY - IC50) worked out at 0.463 µM.

Consider `Cc1ccc(-c2nn(-c3ccccc3)cc2/C=C(/C(=O)c2ccccc2)c2nc3ccccc3s2)o1`, for which the IC90 was above 10 µM. Also, the IC50 (FFLUC_HILL_SLOPE 2.3, FFLUC_R_SQUARED 0.652, PBLUC_HILL_SLOPE 2.05, PBLUC_R_SQUARED 0.091, read-out: LUCIFERASE INFECTION ASSAY - IC50) was above 10 µM.

Take `Cc1nc(N2CCc3ccccc32)c2c3c(sc2n1)CCC3`: the IC90 is 4.64 µM. In addition, the IC50 (HEPG2TOX_HILL_SLOPE 9.23, HEPG2TOX_R_SQUARED 0.902, PBLUC_HILL_SLOPE 9.42, PBLUC_R_SQUARED 0.51, read-out: LUCIFERASE INFECTION ASSAY - IC50) was 3.68 µM.
